Source: patent US9468642B2, “Imidazopyrazines” (BAYER INTELLECTUAL PROPERTY GMBH, priority 2011, dated 2016)

Target: human kinase Mps-1 (Homo sapiens (Human), UniProt P33981)
Assay: Mps-1 Kinase Assay (TR-FRET)
Type: biochemical
Settings: N-terminally GST-tagged human full length recombinant Mps-1; 10 μM ATP; 1 μM peptide substrate; 60 min at 22° C.; read-out: Mps1 IC50
Protocol: The human kinase Mps-1 phosphorylates a biotinylated substrate peptide. Detection of the phosphorylated product is achieved by time-resolved fluorescence resonance energy transfer (TR-FRET) from Europium-labelled anti-phospho-Serine/Threonine antibody as donor to streptavidin labelled with cross-linked allophycocyanin (SA-XLent) as acceptor. Compounds are tested for their inhibition of the kinase activity.
N-terminally GST-tagged human full length recombinant Mps-1 kinase (purchased from Invitrogen, Karslruhe, Germany, cat. no PV4071) was used. As substrate for the kinase reaction a biotinylated peptide of the amino-acid sequence […] (C-terminus in amide form, purchased from Biosynthan GmbH, Berlin) was used.
The concentration of Mps-1 in the assay was adjusted to the activity of the enzyme lot and was chosen appropriate to have the assay in the linear range, typical enzyme concentrations were in the range of about 1 nM (final conc. in the 5 μl assay volume).
The resulting mixture was incubated 1 h at 22° C. to allow the binding of the phosphorylated peptide to the anti-phospho(Ser/Thr)-Europium-antibody. Subsequently the amount of phosphorylated substrate was evaluated by measurement of the resonance energy transfer from the Europium-labelled anti-phospho(Ser/Thr) antibody to the Streptavidin-XLent.

Sequence of human kinase Mps-1 (P33981 whole entry): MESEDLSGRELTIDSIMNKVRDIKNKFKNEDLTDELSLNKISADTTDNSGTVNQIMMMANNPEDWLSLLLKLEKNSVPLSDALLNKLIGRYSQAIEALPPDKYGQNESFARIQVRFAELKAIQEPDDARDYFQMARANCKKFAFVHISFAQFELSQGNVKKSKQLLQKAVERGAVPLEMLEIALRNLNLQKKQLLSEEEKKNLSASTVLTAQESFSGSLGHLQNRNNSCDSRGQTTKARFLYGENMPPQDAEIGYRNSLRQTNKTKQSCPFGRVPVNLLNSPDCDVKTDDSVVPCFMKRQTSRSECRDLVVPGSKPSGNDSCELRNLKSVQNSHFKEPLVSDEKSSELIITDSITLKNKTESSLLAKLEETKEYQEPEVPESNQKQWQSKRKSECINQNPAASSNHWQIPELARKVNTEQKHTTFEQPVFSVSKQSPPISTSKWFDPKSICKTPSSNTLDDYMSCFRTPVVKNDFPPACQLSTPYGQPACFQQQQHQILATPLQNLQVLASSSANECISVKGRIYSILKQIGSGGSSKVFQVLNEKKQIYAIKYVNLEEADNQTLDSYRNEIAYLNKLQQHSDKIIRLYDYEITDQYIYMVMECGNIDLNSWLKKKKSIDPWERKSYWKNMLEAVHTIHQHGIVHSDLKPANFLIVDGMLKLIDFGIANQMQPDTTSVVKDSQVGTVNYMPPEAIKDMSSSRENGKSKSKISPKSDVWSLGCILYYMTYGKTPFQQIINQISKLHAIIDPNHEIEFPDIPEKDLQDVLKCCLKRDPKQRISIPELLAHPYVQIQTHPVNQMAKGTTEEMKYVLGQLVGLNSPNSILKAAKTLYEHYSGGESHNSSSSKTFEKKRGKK

SMILES	IC50 [nM]
CS(=O)(=O)c1nc(-c2ccccc2)cn2c(-c3ccc(C(=O)NC4CC4)cc3)cnc12 (racemic) [Example 3A, N-Cyclopropyl-4-[8-(methylsulfonyl)-6-phenylimidazo[1,2-a]pyrazin-3-yl]benzamide]	6
C[S+]([O-])c1nc(-c2ccccc2)cn2c(-c3ccc(C(=O)NC4CC4)cc3)cnc12 (racemic) [Example 3B, (RS)—N-cyclopropyl-4-[8-(methylsulfinyl)-6-phenylimidazo[1,2-a]pyrazin-3-yl]benzamide]	8.9
CCC[S+]([O-])c1nc(-c2ccccc2)cn2c(-c3ccc(C(=O)NC4CC4)cc3)cnc12 (racemic) [Example 7A, (RS) N-Cyclopropyl-4-[6-phenyl-8-(propylsulfinyl)imidazo[1,2-a]pyrazin-3-yl]benzamide]	20
O=C(NC1CC1)c1ccc(-c2cnc3c(SCC4CCCO4)nc(-c4ccccc4)cn23)cc1 (racemic) [Example 12, (RS) N-Cyclopropyl-4-{6-phenyl-8-[(tetrahydrofuran-2-ylmethyl)sulfanyl]imidazo[1,2-a]pyrazin-3-yl}benzamide]	8
CS(=O)(=NC(=O)C(F)(F)F)c1nc(-c2ccccc2)cn2c(-c3ccc(C(=O)NC4CC4)cc3)cnc12 (racemic) [Example 15, (RS) N-cyclopropyl-4-{8-[S-methyl-N-(trifluoroacetyl)sulfonimidoyl]-6-phenylimidazo[1,2-a]pyrazin-3-yl}benzamide]	5.2
CC(C)C[S+]([O-])c1nc(-c2ccccc2)cn2c(-c3ccc(C(=O)NC4CC4)cc3)cnc12 (racemic) [Example 22A, (RS) N-cyclopropyl-4-[8-(isobutylsulfinyl)-6-phenylimidazo[1,2-a]pyrazin-3-yl]benzamide]	12.7
CC(C)CC[S+]([O-])c1nc(-c2ccccc2)cn2c(-c3ccc(C(=O)NC4CC4)cc3)cnc12 (racemic) [Example 24A, (RS) N-cyclopropyl-4-{8-[(3-methylbutyl)sulfinyl]-6-phenylimidazo[1,2-a]pyrazin-3-yl}benzamide]	14.5
O=C(NC1CC1)c1ccc(-c2cnc3c([S+]([O-])CC(F)(F)F)nc(-c4ccccc4)cn23)cc1 (racemic) [Example 26A, (RS) N-cyclopropyl-4-{6-phenyl-8-[(2,2,2-trifluoroethyl)sulfinyl]imidazo[1,2-a]pyrazin-3-yl}benzamide]	6.2
CSc1nc(Br)cn2c(-c3ccc(C(=O)NC4CC4)cc3)cnc12 [Example 1, 4-[6-Bromo-8-(methylsulfanyl)imidazo[1,2-a]pyrazin-3-yl]-N-cyclopropylbenzamide]	607
CCSc1nc(-c2ccccc2)cn2c(-c3ccc(C(=O)NC4CC4)cc3)cnc12 [Example 4, N-Cyclopropyl-4-[8-(ethylsulfanyl)-6-phenylimidazo[1,2-a]pyrazin-3-yl]benzamide]	22.2
CCS(=O)(=O)c1nc(-c2ccccc2)cn2c(-c3ccc(C(=O)NC4CC4)cc3)cnc12 [Example 5B, N-Cyclopropyl-4-[8-(ethylsulfonyl)-6-phenylimidazo[1,2-a]pyrazin-3-yl]benzamide]	7.7
CCCSc1nc(-c2ccccc2)cn2c(-c3ccc(C(=O)NC4CC4)cc3)cnc12 [Example 6, N-Cyclopropyl-4-[6-phenyl-8-(propylsulfanyl)imidazo[1,2-a]pyrazin-3-yl]benzamide]	11
CCCS(=O)(=O)c1nc(-c2ccccc2)cn2c(-c3ccc(C(=O)NC4CC4)cc3)cnc12 [Example 7B, N-Cyclopropyl-4-[6-phenyl-8-(propylsulfonyl)imidazo[1,2-a]pyrazin-3-yl]benzamide]	10.1
CCCCSc1nc(-c2ccccc2)cn2c(-c3ccc(C(=O)NC4CC4)cc3)cnc12 [Example 8, 4-[8-(Butylsulfanyl)-6-phenylimidazo[1,2-a]pyrazin-3-yl]-N-cyclopropylbenzamide]	26.3
CCCCS(=O)(=O)c1nc(-c2ccccc2)cn2c(-c3ccc(C(=O)NC4CC4)cc3)cnc12 [Example 9B, 4-[8-(Butylsulfonyl)-6-phenylimidazo[1,2-a]pyrazin-3-yl]-N-cyclopropylbenzamide]	14
CC(C)(C)CCSc1nc(-c2ccccc2)cn2c(-c3ccc(C(=O)NC4CC4)cc3)cnc12 [Example 10, N-Cyclopropyl-4-{8-[(3,3-dimethylbutyl)sulfanyl]-6-phenylimidazo[1,2-a]pyrazin-3-yl}benzamide]	85.1
CC(C)(C)CCS(=O)(=O)c1nc(-c2ccccc2)cn2c(-c3ccc(C(=O)NC4CC4)cc3)cnc12 [Example 11B, N-Cyclopropyl-4-{8-[(3,3-dimethylbutyl)sulfonyl]-6-phenylimidazo[1,2-a]pyrazin-3-yl}benzamide]	4.3

SMILES	IC50 [nM]
CC(C)(C)OC(=O)NCCSc1nc(-c2ccccc2)cn2c(-c3ccc(C(=O)NC4CC4)cc3)cnc12 [Example 16, tert-butyl [2-({3-[4-(cyclopropylcarbamoyl)phenyl]-6-phenylimidazo[1,2-a]pyrazin-8-yl}sulfanyl)ethyl]carbamate]	67.6
CCCCCSc1nc(-c2ccccc2)cn2c(-c3ccc(C(=O)NC4CC4)cc3)cnc12 [Example 17, N-cyclopropyl-4-[8-(pentylsulfanyl)-6-phenylimidazo[1,2-a]pyrazin-3-yl]benzamide]	79.8
CCCCCS(=O)(=O)c1nc(-c2ccccc2)cn2c(-c3ccc(C(=O)NC4CC4)cc3)cnc12 [Example 18B, N-cyclopropyl-4-[8-(pentylsulfonyl)-6-phenylimidazo[1,2-a]pyrazin-3-yl]benzamide]	7.5
CC(C)Sc1nc(-c2ccccc2)cn2c(-c3ccc(C(=O)NC4CC4)cc3)cnc12 [Example 19, N-cyclopropyl-4-[8-(isopropylsulfanyl)-6-phenylimidazo[1,2-a]pyrazin-3-yl]benzamide]	22.3
CC(C)S(=O)(=O)c1nc(-c2ccccc2)cn2c(-c3ccc(C(=O)NC4CC4)cc3)cnc12 [Example 20B, N-cyclopropyl-4-[8-(isopropylsulfonyl)-6-phenylimidazo[1,2-a]pyrazin-3-yl]benzamide]	13.9
CC(C)CSc1nc(-c2ccccc2)cn2c(-c3ccc(C(=O)NC4CC4)cc3)cnc12 [Example 21, N-cyclopropyl-4-[8-(isobutylsulfanyl)-6-phenylimidazo[1,2-a]pyrazin-3-yl]benzamide]	13.2
CC(C)CS(=O)(=O)c1nc(-c2ccccc2)cn2c(-c3ccc(C(=O)NC4CC4)cc3)cnc12 [Example 22B, N-cyclopropyl-4-[8-(isobutylsulfonyl)-6-phenylimidazo[1,2-a]pyrazin-3-yl]benzamide]	6.4
CC(C)CCSc1nc(-c2ccccc2)cn2c(-c3ccc(C(=O)NC4CC4)cc3)cnc12 [Example 23, N-cyclopropyl-4-{8-[(3-methylbutyl)sulfanyl]-6-phenylimidazo[1,2-a]pyrazin-3-yl}benzamide]	25.2
CC(C)CCS(=O)(=O)c1nc(-c2ccccc2)cn2c(-c3ccc(C(=O)NC4CC4)cc3)cnc12 [Example 24B, N-cyclopropyl-4-{8-[(3-methylbutyl)sulfonyl]-6-phenylimidazo[1,2-a]pyrazin-3-yl}benzamide]	6.5
O=C(NC1CC1)c1ccc(-c2cnc3c(SCC(F)(F)F)nc(-c4ccccc4)cn23)cc1 [Example 25, N-cyclopropyl-4-{6-phenyl-8-[(2,2,2-trifluoroethyl)sulfanyl]imidazo[1,2-a]pyrazin-3-yl}benzamide]	26.3
O=C(NC1CC1)c1ccc(-c2cnc3c(S(=O)(=O)CC(F)(F)F)nc(-c4ccccc4)cn23)cc1 [Example 26B, N-cyclopropyl-4-{6-phenyl-8-[(2,2,2-trifluoroethyl)sulfonyl]imidazo[1,2-a]pyrazin-3-yl}benzamide]	8.1
O=C(NC1CC1)c1ccc(-c2cnc3c(SCc4ccco4)nc(-c4ccccc4)cn23)cc1 [Example 27, N-cyclopropyl-4-{8-[(2-furylmethyl)sulfanyl]-6-phenylimidazo[1,2-a]pyrazin-3-yl}benzamide]	40.8
O=C(NC1CC1)c1ccc(-c2cnc3c(S(=O)(=O)Cc4ccco4)nc(-c4ccccc4)cn23)cc1 [Example 28B, N-cyclopropyl-4-{8-[(2-furylmethyl)sulfonyl]-6-phenylimidazo[1,2-a]pyrazin-3-yl}benzamide]	7.1
CSc1nc(-c2ccccc2)cn2c(-c3ccc(-c4cnc(C5CC5)[nH]4)cc3)cnc12 [Example 29, 3-[4-(2-cyclopropyl-1H-imidazol-5-yl)phenyl]-8-(methylsulfanyl)-6-phenylimidazo[1,2-a]pyrazine]	544
C=Cc1ccc(-c2cn3c(-c4ccc(-c5cnc(C6CC6)[nH]5)cc4)cnc3c(SC)n2)cc1 [Example 30, 3-[4-(2-cyclopropyl-1H-imidazol-5-yl)phenyl]-8-(methylsulfanyl)-6-(4-vinylphenyl)imidazo[1,2-a]pyrazine]	3100
CSc1nc(-c2ccncc2)cn2c(-c3ccc(-c4cnc(C5CC5)[nH]4)cc3)cnc12 [Example 31, 3-[4-(2-cyclopropyl-1H-imidazol-5-yl)phenyl]-8-(methylsulfanyl)-6-(pyridin-4-yl)imidazo[1,2-a]pyrazine]	125
CC(=O)NCCSc1nc(-c2ccccc2)cn2c(-c3ccc(C(=O)NC4CC4)cc3)cnc12 [Example 33]	19.9
